Assay results taken from US8030016B2, “Method for screening for vitamin D receptor ligands” (Teijin Pharma Limited, priority 2006, dated 2011).

B1: TRAP100, endogenous protein in nuclear protein extracts (other, human, UniProt O75448 1-989, looked up)
chain: MKVVNLKQAILQAWKERWSDYQWAINMKKFFPKGATWDILNLADALLEQAMIGPSPNPLILSYLKYAISSQMVSYSSVLTAISKFDDFSRDLCVQALLDIMDMFCDRLSCHGKAEECIGLCRALLSALHWLLRCTAASAERLREGLEAGTPAAGEKQLAMCLQRLEKTLSSTKNRALLHIAKLEEASSWTAIEHSLLKLGEILANLSNPQLRSQAEQCGTLIRSIPTMLSVHAEQMHKTGFPTVHAVILLEGTMNLTGETQSLVEQLTMVKRMQHIPTPLFVLEIWKACFVGLIESPEGTEELKWTAFTFLKIPQVLVKLKKYSHGDKDFTEDVNCAFEFLLKLTPLLDKADQRCNCDCTNFLLQECGKQGLLSEASVNNLMAKRKADREHAPQQKSGENANIQPNIQLILRAEPTVTNILKTMDADHSKSPEGLLGVLGHMLSGKSLDLLLAAAAATGKLKSFARKFINLNEFTTYGSEESTKPASVRALLFDISFLMLCHVAQTYGSEVILSESRTGAEVPFFETWMQTCMPEEGKILNPDHPCFRPDSTKVESLVALLNNSSEMKLVQMKWHEACLSISAAILEILNAWENGVLAFESIQKITDNIKGKVCSLAVCAVAWLVAHVRMLGLDEREKSLQMIRQLAGPLFSENTLQFYNERVVIMNSILERMCADVLQQTATQIKFPSTGVDTMPYWNLLPPKRPIKEVLTDIFAKVLEKGWVDSRSIHIFDTLLHMGGVYWFCNNLIKELLKETRKEHTLRAVELLYSIFCLDMQQVTLVLLGHILPGLLTDSSKWHSLMDPPGTALAKLAVWCALSSYSSHKGQASTRQKKRHREDIEDYISLFPLDDVQPSKLMRLLSSNEDDANILSSPTDRSMSSSLSASQLHTVNMRDPLNRVLANLFLLISSILGSRTAGPHTQFVQWFMEECVDCLEQGGRGSVLQFMPFTTVSELVKVSAMSSPKVVLAITDLSLPLGRQVAAKAIAAL

What was measured:
HOS-TE85 cells = assay: Differentiation of HOS-TE85 cells in culture; type: cell-based; settings: culturing in the presence of the compound
SaM-1 cells [1] = assay: Alkaline phosphatase staining of SaM-1 cells infected with Ad-CDP or Ad-mock; settings: 10^−8−10^−7 M, seven days
Method: The cells were used to inoculate a 24 well multi-well plate and cultured. When the cells reached 80% confluence, the medium was exchanged for a proliferation medium containing the virus, cultured overnight in order to infect the cells with the virus. Then the medium was exchange for a proliferation medium not containing a virus. […] The medium was exchanged every two days and cultured for seven days. After seven days culturing, alkaline phosphatase staining was performed.

[2] = tested on: human CYP24 gene promoter; assay: Dual luciferase assay, human CYP24 gene promoter in HOS cells; type: cell-based; settings: 10^−8 M, 24 hours
Method: (§1) In order to determine whether or not CDP expression increases VDR ligand-dependent transcription activity, a dual luciferase assay was performed using transient transfection in the same manner as Example 6. The reporter vector used in the dual luciferase assay was a pGL4 vector containing a sequence of human CYP24 gene promoter or a sequence of a human osteocalcin gene promoter upstream of the luciferase gene. The pGL4 vector was commercially obtained from Promega. Furthermore, a DNA sequence encoding a region of 4-427 amino acid residues for human VDR was introduced into a pTracerCMV2 vector (Invitrogen) in order to construct a human VDR expression plasmid. The expression vector for intracellular expression of the CDP protein was the pSPORT6-CDP vector used in Example 4. HOS cells used in the assay were cultured in DMEM medium containing 10% FBS and were passaged every two or three days. The culturing conditions were 37° C., 5% CO2. […] The medium was removed after 24 hours and after washing once in PBS(−), luciferase activity was determined by a Dual-Luciferase Assay kit (Promega) using a luminometer (Bethold Japan). The results were expressed as a “transcription activation” being the value represented by (firefly luciferase activity)/(renilla luciferase activity). […]

SaM-1 cells [3] = assay: Gene expression during osteoblast differentiation of SaM-1 cells, real-time RT-PCR; type: cell-based, human; settings: various concentrations, up to 28 days, relative to beta actin
Description: The medium was replaced every 2 to 3 days. Cells were recovered at the fourth day, seventh day, fourteenth day, and twenty-eighth day until the final differentiation (calcification) on the twenty-eighth day. Total RNA was extracted using an RNeasy Mini Kit (QIAGEN, Product No. 74104) and cDNA synthesized using an Ommniscript RTKit (QIAGEN, Product No. 205110). The cDNA was mixed with SYBR Green PCR Master Mix (Applied Biosystems, Product No. 4367659) and primer oligos suitable for amplifying various types of genes. Variation in the gene expression of the alkaline phosphatase which is a marker for osteoblast differentiation, CDP and osteocalcin, and beta actin which is known as a universally expressed housekeeping gene was examined by real-time RT-PCR using a GeneAmp 5700 Sequence Detection System (Applied Biosystems) or ABI PRISM 7000 Sequence Detection System (Applied Biosystems). Oligos complementary to the various genes were designed by general methods and synthesized by Sigma Genosys. The results are shown by relative values with respect to the amount of expression of beta actin. […] The value for the relative amount of expression is calculated using the formula 2^−(ΔΔCT of target gene−ΔΔCT of beta actin).

HeLa cells = assay: Differentiation of HeLa cells in culture; type: cell-based; settings: culturing in the presence of the compound
MCF-7 cells = assay: Differentiation of MCF-7 cells in culture; type: cell-based; settings: culturing in the presence of the compound
[4] = tested on: human osteocalcin gene promoter; assay: Dual luciferase assay, human osteocalcin gene promoter in HOS cells; type: cell-based; settings: 10^−8 M, 24 hours, endogenous VDR
Method: as §1

HOS cells = assay: Gene expression in HOS cells transfected with pSPORT6-CDP, real-time RT-PCR; type: cell-based, human; settings: HOS cells with CDP introduced, various concentrations, three days, relative to GAPDH
Method: After three days, cells were recovered, and total RNA was extracted using an RNeasy Mini Kit (QIAGEN, Product No. 74104). Reverse transcription reactions were performed by oligo dT primers using SuperScriptlll RT (Invitrogen, 18080-044) and the amount of expression of various genes was determined using real-time RT-PCR (Applied Biosystems, GeneAmp7000). The amount of gene expression was corrected using GAPDH which is a housekeeping gene and shown as a relative figure of GAPDH and the amount of respective gene expression. The formula used is the same as that used in Example 5.

[5] = biological target: T1, CCAAT Displacement Protein (CDP), endogenous protein in nuclear protein extracts (human, UniProt P39880 1-1505, limits assumed); assay: immunoprecipitation with anti-CDP antibody of the glutathione eluate of GST-VDR-bound HOS nuclear proteins (with 1,25(OH)2D3); western blot
T1 construct: Endogenous protein of nuclear extracts from HOS (human osteoblast cell strain), HeLa or Caco-2 cells; also called CUTL1; CUX
T1 sequence (P39880 whole entry): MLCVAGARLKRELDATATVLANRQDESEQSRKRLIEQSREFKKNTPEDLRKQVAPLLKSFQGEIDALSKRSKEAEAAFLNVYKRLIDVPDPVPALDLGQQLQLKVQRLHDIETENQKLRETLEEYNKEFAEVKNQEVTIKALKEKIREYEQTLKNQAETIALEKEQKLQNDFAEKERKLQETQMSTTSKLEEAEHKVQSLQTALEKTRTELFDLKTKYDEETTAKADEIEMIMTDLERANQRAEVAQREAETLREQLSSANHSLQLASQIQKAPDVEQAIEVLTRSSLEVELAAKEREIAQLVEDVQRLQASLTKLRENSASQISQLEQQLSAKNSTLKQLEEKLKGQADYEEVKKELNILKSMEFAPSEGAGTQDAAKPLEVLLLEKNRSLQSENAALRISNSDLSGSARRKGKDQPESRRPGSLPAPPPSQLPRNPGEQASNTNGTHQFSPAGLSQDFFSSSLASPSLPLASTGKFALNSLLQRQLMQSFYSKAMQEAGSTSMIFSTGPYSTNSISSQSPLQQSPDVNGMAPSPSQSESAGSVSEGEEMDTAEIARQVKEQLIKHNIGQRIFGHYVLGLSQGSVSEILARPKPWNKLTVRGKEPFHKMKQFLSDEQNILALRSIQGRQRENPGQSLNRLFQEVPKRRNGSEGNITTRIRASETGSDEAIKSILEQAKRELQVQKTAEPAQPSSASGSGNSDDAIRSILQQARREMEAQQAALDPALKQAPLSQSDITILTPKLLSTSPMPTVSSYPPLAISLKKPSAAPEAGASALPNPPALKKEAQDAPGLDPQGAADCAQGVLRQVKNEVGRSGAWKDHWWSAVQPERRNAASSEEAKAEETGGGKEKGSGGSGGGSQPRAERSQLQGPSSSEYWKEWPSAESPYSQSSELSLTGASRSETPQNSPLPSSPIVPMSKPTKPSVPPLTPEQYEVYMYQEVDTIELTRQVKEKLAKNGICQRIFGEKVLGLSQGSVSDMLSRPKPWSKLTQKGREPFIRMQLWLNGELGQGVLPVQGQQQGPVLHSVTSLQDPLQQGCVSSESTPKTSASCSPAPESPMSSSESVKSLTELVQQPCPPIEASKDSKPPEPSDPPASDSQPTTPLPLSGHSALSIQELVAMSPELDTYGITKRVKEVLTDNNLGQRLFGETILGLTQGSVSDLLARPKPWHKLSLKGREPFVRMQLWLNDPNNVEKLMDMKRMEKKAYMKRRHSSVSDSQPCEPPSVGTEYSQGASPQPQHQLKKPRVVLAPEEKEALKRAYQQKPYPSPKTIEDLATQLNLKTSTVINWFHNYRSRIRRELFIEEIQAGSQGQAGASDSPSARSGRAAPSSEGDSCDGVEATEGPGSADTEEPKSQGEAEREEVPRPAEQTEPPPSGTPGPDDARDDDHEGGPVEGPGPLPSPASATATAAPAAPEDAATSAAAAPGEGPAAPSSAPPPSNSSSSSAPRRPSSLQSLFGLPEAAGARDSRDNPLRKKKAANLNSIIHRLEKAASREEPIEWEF

Row | Molecule | cell differentiation (HOS-TE85 cells) | number of alkaline phosphatase-positive cells (SaM-1 cells [1]; Ad-CDP group (CDP over-expressed)) | number of alkaline phosphatase-positive cells (SaM-1 cells [1]; Ad-mock group) | VDR-mediated transcription activation of a human CYP24 promoter [2] | VDR-mediated transcription activation of a human CYP24 promoter when CDP is expressed ([2]; pSPORT6-CDP co-transfected) | gene expression of CDP (SaM-1 cells [3]) | gene expression of osteocalcin (SaM-1 cells [3]) | cell differentiation (HeLa cells) | cell differentiation (MCF-7 cells) | VDR-mediated transcription activation of a human osteocalcin promoter [4] | VDR-mediated transcription activation of a human osteocalcin promoter when CDP is expressed ([4]; pSPORT6-CDP co-transfected) | gene expression of CYP24 (HOS cells) | gene expression of alkaline phosphatase (ALP) (HOS cells) | gene expression of osteocalcin (HOS cells) | binding result [5]
1 | C=C1/C(=C\C=C2/CCC[C@]3(C)[C@@H]([C@H](C)CCCC(C)(C)O)CC[C@@H]23)C[C@@H](O)C[C@@H]1O [1,25 (OH)2D3, 1α,25-dihydroxyvitamin D3] | differentiate | conspicuously higher increase in the number of alkaline phosphatase-positive cells | increase in the number of alkaline phosphatase-positive cells | increases | further increased when CDP is expressed | increase | increase | this type of action was not seen | this type of action was not seen | increases | further increased when CDP is expressed | increased | increased | increased | 
2 | B1 |  |  |  |  |  |  |  |  |  |  |  |  |  |  | no binding
